Data: US7163589B2 (priority 2001, dated 2007)

System: Mouse immunoglobulin (IgG)

Question: Which “Effect on protein conformation (denaturation)” value does the source give for COC(F)(F)C(F)(F)C(F)(F)C(F)(F)F [HFE-7100, methyl nonafluorobutyl ether] here?
Answer: The value was “changes the conformation of the proteins”.
